Experimental findings from patent US8404287B2, “Use of Fructus schisandrae and extracts thereof in preventing and decreasing toxic and side effects of antineoplastic drugs” (priority 2005, dated 2013) are described below.

The subject of series [1] is ICR mice. To be noted: antineoplastic agent ip once every two days x7 (Methotrexate 2, Cisplatin 2, 5-fluorouracil 30, Cytoxan 30, Vincristine 0.3 mg/kg), alone or within two hours after lignan 100 mg/kg ig. From the text:
The mice were divided randomly as following, 6 mice per group.

For series [2], the system named is ICR mice. To be noted: antineoplastic agent ip once every two days x7 (Methotrexate 2, Cisplatin 2, 5-fluorouracil 30, Cytoxan 30, Vincristine 0.3, Doxorubicin 4 mg/kg), alone or within 2 h after extract 400 mg/kg ig. From the text:
The mice were grouped randomly as below, 6 mice per group.

For series [3], the system named is mice with acute toxicity induced by Doxorubicin. Briefly: Survival rate of mice with acute toxicity induced by Doxorubicin, Schisandrin B (Example 7). In kind it is in vivo, mouse.
Experimental: Group of Doxorubicin: 42 mice were dosed intragastrically with normal saline at the 1st-3rd day of the experiment, once a day and each time with 20 ml/kg. At the 3rd day, the mice were injected into their abdominal cavities with Doxorubicin of 25 mg/kg.
At the 3rd day, the mice were injected into their abdominal cavities with 25 mg/kg of Doxorubicin 0.5 hours after drench.
Series [4] concerns mice with myocardial damage induced by Doxorubicin. The series can be described thus: Serum myocardium enzymes (CK, CK-MB, LDH, GOT) after Doxorubicin, Schisandrin B (Example 7). As for the experimental part:
CK, CK-MB, LDH and GOT were determined by automatic biochemistry analyzer.
Control group: 24 mice were dosed intragastrically with normal saline at the 1st-3rd day of the experiment, once a day and each time with 20 ml/kg.
Group of Schisandrin B (SchB group): 24 mice were dosed intragastrically with SchB at the 1st-3rd day of the experiment, once a day and each time with 100 mg/kg.
Group of Doxorubicin: 42 mice were dosed intragastrically with normal saline at the 1st-3rd day of the experiment, once a day and each time with 20 ml/kg.
At the 5th day (48 hours after injection of Doxorubicin into abdominal cavity), blood were taken from 6 mice of each group. The serum was separated by regular separation. CK, CK-MB, LDH and GOT were determined by automatic biochemistry analyzer.

Series [5] deals with mice with acute toxicity induced by Doxorubicin. Briefly: Survival rate of mice with acute toxicity induced by Doxorubicin, ethanol extract (Example 2). Format: in vivo, mouse.
Experimental: Group of Doxorubicin (the Dox group): 42 mice were dosed intragastrically with normal saline in an amount of 20 ml/kg each time at the 1st-3rd day of the experiment, once a day. At the 3rd day, the mice were injected with Doxorubicin of 25 mg/kg into their abdominal cavities.
Group 1 of Doxorubicin plus the extract of Fructus schisandrae (group 1 of Dox +X): 24 mice were dosed intragastrically with the extract of Fructus schisandrae in an amount of 400 mg/kg each time at the 1st-3rd day of the experiment, once a day. At the 3rd day, the mice were injected with 25 mg/kg of Doxorubicin into their abdominal cavities 0.5 hours after drench.
Group 2 of Doxorubicin plus the extract of Fructus schisandrae (group 2 of Dox +X): 24 mice were dosed intragastrically with the extract of Fructus schisandrae in an amount of 200 mg/kg each time at the 1st-3rd day of the experiment, once a day. At the 3rd day, the mice were injected with 25 mg/kg of Doxorubicin into their abdominal cavities 0.5 hours after drench.
Series [6] concerns ICR mice. To be noted: Doxorubicin alone or in combination with dibenzocyclooctadiene lignans.
Experimental: Doxorubicin Hydrochloride Injection was obtained from Italy pharmacia Co. Six Dibenzocyclooctadiene lignans were obtained from National Institute for the Verification of Pharmaceutical and Biological Products (Product No.: 110765-200407), which were dissolved in 0.5% Poloxamer. Female ICR mice with a body weight of 25-30 g were obtained from Shanghai Experimental Animal Center, which were grouped randomly into 4 groups, 10 mice per group.
Group of Doxorubicin (Dox group): 10 mice were injected into their abdominal cavities with 2 mg/kg of Doxorubicin once every two days, consecutively for 7 times.
The test system of series [7] is mice with myocardial damage induced by Doxorubicin. The series can be described thus: Serum myocardium enzymes (CK, CK-MB, LDH, GOT) after Doxorubicin, ethanol extract (Example 2). To be noted: Dox group: Doxorubicin 25 mg/kg ip at 3rd day; vs control group and X group (P<0.05); 48 h after injection. In kind it is in vivo, mouse. As for the experimental part: Ethanol extract of Fructus schisandrae prepared from Example 1 was dissolved in 0.5% Poloxamer. CK (creatine kinase), CK-MB (creatine kinase isozyme), LDH (lactic dehydrogenase) and GOT (glutamic-oxalocetic transaminase) were detected by automatic biochemistry analyzer.
The serum was separated by regular separation and frozen at −80° C.

For series [8], the system named is ICR mice. The series can be described thus: Apparent condition of mice, ethanol extract and Doxorubicin (Example 2). In kind it is in vivo, mouse. As to conditions: Doxorubicin alone or with extract ig 3 times.
For series [9], the system named is left ventricular myocardium matrix metalloproteinase (MMP-2). Briefly: Left ventricular myocardium MMP-2 activity, Schisandrin B (Example 7). In kind it is in vivo, mouse. As for the experimental part: The experimental method was carried out as those described in Example 2 (1.4).

Where two headings read alike, the source gives them in different places.

`O=P1(N(CCCl)CCCl)NCCCO1` (stereo not shown) [Cytoxan]: in the series with ICR mice [1], the Heart weight is 162.6 ± 31.4 mg, the Kidney weight is reported as 396.3 ± 54.7 mg, the Liver weight came to 1.88 ± 0.36 g and the Spleen weight worked out at 113.5 ± 24.7 mg. Also, the Thymus weight with ICR mice [1] came to 49.8 ± 12.4 mg. Moreover, in the series on ICR mice [2], the Heart weight turned out to be 162.6 ± 31.4 mg, the Kidney weight worked out at 396.3 ± 54.7 mg, the Liver weight was determined as 1.88 ± 0.36 g and the Spleen weight is 113.5 ± 24.7 mg. This molecule returned a Thymus weight with ICR mice [2] of 49.8 ± 12.4 mg.

On to `COc1cccc2c1C(=O)c1c(O)c3c(c(O)c1C2=O)C[C@@](O)(C(=O)CO)C[C@@H]3O[C@H]1C[C@H](N)[C@H](O)[C@H](C)O1` [Doxorubicin], for which the “survival rate on the 7th day” value in series [3] (Doxorubicin 25 mg/kg ip alone) was 0; in [5] (Dox group: Doxorubicin 25 mg/kg ip alone), 3.7%. For the same molecule, the “day on which death of mice occurred” value in series [3] (Doxorubicin 25 mg/kg ip, alone or with Sch B 100, 50 or 25 mg/kg ig days 1-3) is 4 days; in series [5] (Doxorubicin 25 mg/kg ip, alone or with extract 400 or 200 mg/kg ig days 1-3), 5 days. Moreover, the “4 serum enzyme indexes (CK, CK-MB, LDH, GOT)” value in [4] (Doxorubicin 25 mg/kg ip alone, vs control group and Sch B group (P<0.05), 48 h after injection) is “significantly higher”. Moreover, the “apparent conditions of mice” value in the series with ICR mice [6] is “in bad conditions after 7-8 days, manifested as asthenia, listlessness and hypotrichosis”. Moreover, the “serum myocardium enzyme spectrum indexes (CK, CK-MB, LDH, GOT)” value in [7] is recorded as “significantly higher”. For the same molecule, the “apparent condition of mice” value in the series on ICR mice [8] is “in bad conditions, manifested as asthenia, listlessness, hypotrichosis”.

On to `COc1cc2c(c(OC)c1OC)-c1c(cc3c(c1OC)OCO3)CC(C)C(C)C2` (stereo not shown) [Schisandrin B], for which the “increase of mouse left ventricular myocardium MMP-2 activity induced by Doxorubicin” value in [9] (FIG. 14) was “inhibit the increase”. Moreover, in series [9] (Sch B group: 100 mg/kg ig days 1-3, no Doxorubicin), the “left ventricular myocardium MMP-2 activity” value is “No left ventricular myocardium matrix metalloproteinase (MMP-2) activity”. Moreover, in [3] (FIG. 15), the “death of mouse induced by Doxorubicin” value is listed as “inhibit the death”. For the same molecule, the “increase of mouse serum creatine kinase (CK) induced by Doxorubicin” value in [4] (FIG. 10) is recorded as “inhibit the increase”. The “increase of mouse serum creatine kinase isozyme (CK-MB) induced by Doxorubicin” value in [4] (FIG. 11) is “inhibit the increase”. Also, the “increase of mouse serum glutamic-oxalocetic transaminase (GOT) induced by Doxorubicin” value in series [4] (FIG. 12) is “inhibit the increase”. The “increase of mouse serum lactic dehydrogenase (LDH) induced by Doxorubicin” value in series [4] (FIG. 13) is “inhibit the increase”.
